Our source for the IC50 values is patent US12344595B2, “2-amino-n-phenyl-nicotinamides as NAV1.8 inhibitors” (Merck Sharp & Dohme LLC, priority 2018, dated 2025).

As a reminder, the IC50 is the midpoint of a concentration-inhibition curve. Lower therefore signals greater potency.

Sequence of human Nav1.8 (Q9Y5Y9 whole entry): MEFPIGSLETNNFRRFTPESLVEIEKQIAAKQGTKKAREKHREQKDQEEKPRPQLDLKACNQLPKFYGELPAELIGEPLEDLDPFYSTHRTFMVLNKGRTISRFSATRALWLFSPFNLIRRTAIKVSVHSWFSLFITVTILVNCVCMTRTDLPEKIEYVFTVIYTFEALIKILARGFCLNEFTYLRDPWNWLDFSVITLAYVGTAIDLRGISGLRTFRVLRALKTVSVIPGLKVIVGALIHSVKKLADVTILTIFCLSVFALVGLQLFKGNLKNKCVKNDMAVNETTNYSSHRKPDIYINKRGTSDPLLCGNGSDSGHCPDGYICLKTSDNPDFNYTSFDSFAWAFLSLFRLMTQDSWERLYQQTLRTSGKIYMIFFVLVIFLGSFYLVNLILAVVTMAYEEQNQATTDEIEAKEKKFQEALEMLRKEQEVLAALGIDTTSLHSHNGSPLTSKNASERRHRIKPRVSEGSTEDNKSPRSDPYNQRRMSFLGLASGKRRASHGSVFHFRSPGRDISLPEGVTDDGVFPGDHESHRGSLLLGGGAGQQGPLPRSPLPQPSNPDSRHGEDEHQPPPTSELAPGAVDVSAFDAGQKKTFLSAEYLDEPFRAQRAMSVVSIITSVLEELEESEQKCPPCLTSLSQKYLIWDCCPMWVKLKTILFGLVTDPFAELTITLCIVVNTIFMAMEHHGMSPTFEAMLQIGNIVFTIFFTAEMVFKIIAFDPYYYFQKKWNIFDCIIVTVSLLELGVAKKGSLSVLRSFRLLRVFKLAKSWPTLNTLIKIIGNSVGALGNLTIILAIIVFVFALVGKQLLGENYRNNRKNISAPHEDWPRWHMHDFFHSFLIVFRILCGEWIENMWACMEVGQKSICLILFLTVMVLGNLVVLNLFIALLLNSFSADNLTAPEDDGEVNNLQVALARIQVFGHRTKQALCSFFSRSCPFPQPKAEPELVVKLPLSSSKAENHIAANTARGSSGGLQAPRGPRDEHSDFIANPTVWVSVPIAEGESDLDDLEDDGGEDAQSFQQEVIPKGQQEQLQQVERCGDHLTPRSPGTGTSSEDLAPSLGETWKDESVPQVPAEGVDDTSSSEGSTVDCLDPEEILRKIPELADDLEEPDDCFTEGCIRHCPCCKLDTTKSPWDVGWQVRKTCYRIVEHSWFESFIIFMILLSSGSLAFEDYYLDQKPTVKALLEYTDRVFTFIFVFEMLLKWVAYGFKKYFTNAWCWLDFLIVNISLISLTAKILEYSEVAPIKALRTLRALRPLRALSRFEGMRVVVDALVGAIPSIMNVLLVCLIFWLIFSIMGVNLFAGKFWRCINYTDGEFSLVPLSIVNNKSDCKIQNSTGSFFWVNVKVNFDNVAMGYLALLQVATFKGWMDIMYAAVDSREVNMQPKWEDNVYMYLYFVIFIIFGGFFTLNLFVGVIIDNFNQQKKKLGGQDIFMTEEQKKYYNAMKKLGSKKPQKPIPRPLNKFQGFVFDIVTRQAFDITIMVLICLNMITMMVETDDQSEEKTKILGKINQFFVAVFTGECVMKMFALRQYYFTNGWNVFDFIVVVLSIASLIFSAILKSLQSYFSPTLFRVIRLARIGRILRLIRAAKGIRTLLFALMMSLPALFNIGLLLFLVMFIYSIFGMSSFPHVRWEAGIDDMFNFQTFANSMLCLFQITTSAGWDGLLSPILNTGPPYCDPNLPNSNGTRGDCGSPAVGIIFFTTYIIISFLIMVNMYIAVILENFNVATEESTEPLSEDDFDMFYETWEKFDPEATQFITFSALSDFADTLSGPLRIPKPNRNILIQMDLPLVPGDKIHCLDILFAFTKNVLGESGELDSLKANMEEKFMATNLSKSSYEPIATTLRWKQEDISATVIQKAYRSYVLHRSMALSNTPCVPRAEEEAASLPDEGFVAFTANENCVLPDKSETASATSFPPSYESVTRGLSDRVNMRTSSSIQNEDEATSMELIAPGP

The target in this assay is human Nav1.8 (Homo sapiens (Human), UniProt Q9Y5Y9). Description: Nav1.8 Qube automated patch-clamp assay. The format is cell-based. The conditions noted are these: Nav1.8 Qube Assay; human Nav1.8 channels stably expressed in HEK 293 cells. In outline:
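IC50 values came from Hill fitting of peak currents: pulse 1 for resting-state and pulse 10 for inactivated-state inhibition. Currents were recorded in stably transfected HEK293 cells at room temperature, with ten 20 ms steps to 10 mV at 1 Hz from a −90 mV hold. External solution was 150 mM NaCl-based; internal solution was CsF/CsCl.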
(The patch-clamp technique gives a direct electrical read-out from membranes.)
`O=C(Nc1cccc(S(=O)(=O)N2CCCC2)c1)c1cc(C(F)(F)F)cnc1N1CCCCCC1` [Example 24, 2-(azepan-1-yl)-N-(3-pyrrolidin-1-yl-sulfonylphenyl)-5-(trifluoromethyl)-pyridine-3-carboxamide] registered an IC50 of 4.43 µM. As for `NS(=O)(=O)c1cccc(NC(=O)c2ccc(C(F)(F)C(F)(F)F)nc2N2CCCCC2)c1` [Example 165, 6-(1,1,2,2,2-pentafluoroethyl)-2-(1-piperidyl)-N-(3-sulfamoylphenyl) pyridine-3-carboxamide], the figure is 0.342 µM. The compound `CS(=O)(=O)c1cccc(NC(=O)c2ccc(C(F)(F)F)nc2N2CCCCCC2)c1` [Example 82, 2-(azepan-1-yl)-N-(3-(methylsulfonyl)phenyl)-6-(trifluoro-methyl)nicotinamide] displayed an IC50 of 0.06 µM. The same measure for `NS(=O)(=O)c1cccc(NC(=O)c2cc(C3CC3)cnc2N2CCCC(F)(F)CC2)c1` [Example 163, 5-cyclopropyl-2-(4,4-difluoroazepan-1-yl)-N-(3-sulfamoyl-phenyl)nicotinamide]: 0.0073 µM; for `Cc1ccc(-c2cnc(N3CCCCC3)c(C(=O)Nc3cccc(S(N)(=O)=O)c3)c2)cc1` [Example 27, 2-(piperidin-1-yl)-N-(3-sulfamoylphenyl)-5-(p-tolyl)nicotinamide]: 4.43 µM. In turn, `Cc1cc(C(=O)Nc2cccc(C(N)=O)c2)c(N2CCCCCC2)nc1C` [Example 37, 2-(azepan-1-yl)-N-(3-carbamoylphenyl)-5,6-dimethyl-pyridine-3-carboxamide] displayed an IC50 of 0.106 µM.
